Experimental data from patent publication US20110212111A1, “MHC II Associated Protein and Uses Thereof” (priority 2008, published 2011).

Assays:
MPYS [1] = assay: MPYS oxidation (disulfide bonded homodimer, non-reducing SDS-PAGE); type: cell-based; conditions: ER stress inducer; cells not given
Text: (§1) It was also noticed that after the thiol reductase reaction, a large portion of MPYS occurs in a ˜80 kDa SDS resistant form consistent with the predicted size of a homodimer. The present inventors have shown that MPYS is dimeric in mouse B cells. To determine whether MPYS occurs as a non-disulfide-bonded dimer that becomes […] disulfide bonded upon oxidation, the chemical crosslinker Dithiobis[succinimidyl propionate] (DSP) was used to detect the endogenous MPYS complex in mouse splenocytes. In non-reducing SDS-PAGE, DSP treated MPYS ran as a single band of ˜80 kDa, the predicted size of a MPYS homodimer while non-DSP treated mock (or DTT treated) MPYS ran at the monomer size (˜40 kDa). It was also discovered that Flag-tagged MPYS associates with HA-MPYS when the two were co-expressed. Thus, the ˜80 kDa band seen on the non-reducing gels is a MPYS homodimer. Since this homodimer is sensitive to SDS, its dimerization is not mediated by intermolecular disulfide bonds.
(§2) The appearance of the SDS resistant MPYS homodimer after the thiol reductase reaction indicated the formation of intermolecular disulfide bonds in homodimeric MPYS is a consequence of oxidation. […] […] H2O2) and the thiol reductase reaction can lead to formation of intermolecular disulfide bonds in homodimeric MPYS.

MPYS [2] = target: T1, MPYS (Mus musculus, UniProt Q3TBT3); assay: as above; type: cell-based; conditions: RAW264.7 cells
T1 construct: used to detect the endogenous MPYS complex in mouse splenocytes; endogenous in cells; host or cells: mouse splenocytes; K46 mouse B lymphoma cells; RAW264.7 mouse macrophage cells
T1 sequence (Q3TBT3 1-378): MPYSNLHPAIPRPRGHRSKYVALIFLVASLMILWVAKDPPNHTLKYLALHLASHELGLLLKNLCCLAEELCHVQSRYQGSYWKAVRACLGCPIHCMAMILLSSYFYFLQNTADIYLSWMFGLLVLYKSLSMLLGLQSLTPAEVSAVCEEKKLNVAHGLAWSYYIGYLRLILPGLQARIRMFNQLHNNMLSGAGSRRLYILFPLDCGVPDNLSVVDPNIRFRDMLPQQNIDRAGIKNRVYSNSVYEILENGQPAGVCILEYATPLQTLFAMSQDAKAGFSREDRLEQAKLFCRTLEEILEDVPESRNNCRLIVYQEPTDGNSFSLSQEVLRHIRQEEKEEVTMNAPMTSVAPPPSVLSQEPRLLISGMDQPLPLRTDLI
Text: as §1, §2

K46 B lymphoma cells = assay: MHC II mAb-induced cell death of K46 cells (Annexin V/PI, DiOC6/PI flow cytometry); type: cell-based, murine; conditions: for effect of inhibitor on MHC II mAb-induced death response: K46 cells pre-treated with inhibitor
Experimental: K46 cells were suspended in 5% complete IMDM media at a concentration of 10^6 cells/mL and then transferred to round bottomed 96-well plates (100 μL/well) and cultured at 37° C. for 1 h. Biotinylated MHC II mAbs were added into the wells and incubated for 12 min. Avidin was then added into the wells and cells were cultured for the indicated time. PI (2 μg/mL) and Annexin V-Alexa Fluor 488 (1 μL/100 μL cells) (A-13201, Molecular Probes), or DiOC6 (50 nM) and PI (2 μg/mL) was used to measure apoptotic or dead cells by flow cytometry.
(§3) ERK inhibitor PD98059 (Calbiochem, 513000), AKT inhibitor LY294002 (Calbiochem, 440202), and p38 inhibitor SB203580 (Calbiochem, 559389) were used in this study. The inhibitor was added to cells at 5×10^6 cells/mL and cultured for 4 hrs. Samples were then split into 1×10^6 cells/mL and cell death was induced and measured as above. To inhibit src kinase, PP2 (Calbiochem, 529573) was added into cells and cultured for 30 min before cell death was induced as above.

ERK = assay: MHC II induced ERK activation (phospho-ERK blotting); type: cell-based, murine; conditions: K46 cells; PD98059 at 50 μM
Experimental: as §3
(§4) Cells were lysed in 0.33% CHAPS buffer (150 mM NaCl, 10 mM Tris pH 7.5, 10 mM sodium pyrophosphate, 2 mM Na3VO4, 10 mM NaF, 0.4 mM EDTA, 1 mM PMSF, and 1 μg/mL each of aprotinin, α1-antitrypsin, and leupeptin) (40×10^6/mL) at 4° C. for 1.5 h or overnight. Cell lysates were centrifuged at 12,000 g at 4° C. for 20 min. Supernatants were analyzed on a 10% SDS-PAGE gel. The gel was transferred to a PVDF membrane and proteins were probed with Abs and visualized using an ODYSSEY Infrared Imaging System (LI-COR). […]

[3] = test system: calcium mobilization in K46 cells; assay: MHC II mAb-induced calcium mobilization (Indo-1AM); type: cell-based, murine
Experimental: Cells were loaded with Indo-1AM (Molecular Probes, Eugene, Oreg.) for 30 min at 37° C. as recommended by the manufacturer. Anti-MHC II mAb (10 μg/mL) was then added to the suspension for another 12 min at 37° C. before cells were washed and suspended in IMDM supplemented with 2% FCS. The cells (10^6 cells/mL) were analyzed before and after stimulation via cros slinking with avidin (20 μg/mL). Data were analyzed by Flow-Jo software (Tree Star, Inc., San Carlos, Calif.).

[4] = test system: tyrosine phosphorylation in K46 cells; assay: MHC II mAb-induced tyrosine phosphorylation (immunoblotting); type: cell-based, murine
Experimental: as §3, §4

TLR4-293T cells = assay: Measurement of intracellular ROS (H2DCFDA flow cytometry); type: cell-based, human
Experimental: Cells were washed and suspended in PBS, and then culture with H2DCFDA (5 μM) (Invitrogen, D399) for 20 min at 37° C. They were then washed in PBS and the fluorescence was measured by flow cytometry.

NFκB = assay: MPYS induced NFκB reporter activation in TLR4-293 cells; type: cell-based, human; conditions: TLR4-293T / TLR4-293GT cells
Experimental: (§5) 293 GT cells and their derivatives (˜1×10^5) were seeded in 24-well dishes and transfected the following day using Effectene transfection reagent kit (Qiagen, cat #301427). Reporter assays were performed as previous described. Id.
(§6) Cells were seeded in 24-well dishes (˜1×10^5/ml) and transfected the following day using Effectene transfection reagent kit (Qiagen, 301427). Reporter assays were performed as previous described by Bin et al., in J Biol. Chem., 2003, 278, 24526-24532. All experiments were repeated at least three times and results are representative.

IFNβ promoter = assay: MPYS induced IFNβ reporter activation in TLR4-293 cells; type: cell-based, human; conditions: TLR4-293T / TLR4-293GT cells
Experimental: as §5, §6

[5] = test system: RAW264.7 macrophage cells; assay: Listeria monocytogenes induced IFNβ response in RAW264.7 cells (IFNβ-luc); type: cell-based, mouse
Experimental: RAW264.7, K46 B lymphoma cells and the 293GT cells were maintained in IMDM supplemented with 5% FBS. 293MT cells were maintained in DMEM (GIBCO, cat: 11965), 5% FBS (Biosource, 200p-500HI), sodium pyruvate (GIBCO 11360, 1 mM), HEPES buffer (GIBCO 15630-080, 10 mM) and 2-ME (50 μM) (Life Technologies, Gaithersburg Md.). The RAW264.7 cells stably expressing the IFNβ-Luciferase construct were generated by co-transfecting RAW264.7 cells with pGL3-IFNβ-Luciferase (Promega) and p-Puromycin plasmids (Clonetch). The stable cell line was established under puromycin selection (4 μg/ml).
RAW264.7 cells expressing the IFNβ-luc construct were infected with Listeria monocytogenes strain 10403S at multiplicity of five bacteria/cell. Cells were washed at 1 h after infection. Live bacterial were killed by addition of gentamicin. Whole cell lysates were prepared 5.5 h after infection. Luciferase activity was read with BD Monolight kit and Synergy reader.

With `C[C@H]1CCC/C=C/[C@@H]2C[C@H](O)C[C@H]2[C@H](O)/C=C/C(=O)O1` [Brefeldin A] the “formation of oxidized MPYS” value (MPYS [1]) was “generated oxidized MPYS”.
In the case of `OO` [H2O2], the “formation of oxidized MPYS” value (MPYS [2]) is reported as “led to the formation of oxidized MPYS”.
For `O=c1cc(N2CCOCC2)oc2c(-c3ccccc3)cccc12` [LY294002], the “effect of inhibitor on MHC II mAb-induced death response” value (“effect of inhibitor” for short) (K46 B lymphoma cells) was “no significant effect”.
`COc1cccc(-c2cc(=O)c3ccccc3o2)c1N` [PD98059] was tested, and the “inhibition of MHC II mediated cell death” value (K46 B lymphoma cells; inhibitor at 50 μM, K46 cells) was “about 50%” and the “effect on MHC II induced ERK activation” value (ERK) was “did not completely inhibit”.
For `CC(C)(C)n1nc(-c2ccc(Cl)cc2)c2c(N)ncnc21` [PP2], the “effect on MHC II mAb-induced calcium responses” value [3] was “blocked”, the “effect on MHC II mAb-induced tyrosine phosphorylation” value ([4]; K46 cells) was “blocked” and the “effect on MPYS tyrosine phosphorylation and recruitment of SHP-1 and SHIP-1” value ([4]; after MHC class II aggregation) was “blocked”. For the same compound, the “effect of inhibitor” value (K46 B lymphoma cells) was “remained largely intact” and the “effect on MHC II induced ERK activation” value (ERK) was “neither MHC class II-mediated activation of ERK nor apoptosis was inhibited”.
For `C[S+]([O-])c1ccc(-c2nc(-c3ccncc3)c(-c3ccc(F)cc3)[nH]2)cc1` (centres unmarked) [SB203580], the “effect of inhibitor” value (K46 B lymphoma cells) was “no significant effect”.
With `C=C(C)[C@H]1Cc2c(ccc3c2O[C@@H]2COc4cc(OC)c(OC)cc4[C@@H]2C3=O)O1` [rotenone] the “cellular ROS level” value (TLR4-293T cells) was “increased cellular ROS level”, the “effect on MPYS induced NFκB reporter activation” value (NFκB) was “completely inhibited” and the “effect on MPYS induced IFNβ reporter activation” value (IFNβ promoter) was “completely inhibited”. For the same compound, the “effect on Listeria monocytogenes induction of IFNβ production” value [5] was “significantly inhibited” and the “formation of oxidized MPYS” value (MPYS [2]) was “led to the formation of oxidized MPYS”.
For Poly(I:C), the “formation of oxidized MPYS” value (MPYS [2]) was “did not generate oxidized MPYS”.
